Reference: patent publication US10555987B2, “GHRH agonists for the treatment of ischemic disorders” (UNIVERSITY OF MIAMI, priority 2012, dated 2020)
Non-standard residues stand in square brackets, D forms with d. Residues, ends and D or L forms follow the SMILES beside them. *: point of attachment. Desaminotyrosyl = O=C(CCc1ccc(O)cc1)*; NMeY = CN[C@@H](Cc1ccc(O)cc1)C(=O)O; Agmatine = N=C(N)NCCCCN*; Nle = CCCC[C@H](N)C(=O)O; Orn = NCCC[C@H](N)C(=O)O; Abu = CC[C@H](N)C(=O)O

How the values were obtained:
[1] = test system: nitrosoglutathione reductase-/- (GSNOR-/-) mesenchymal stem cells (MSCs); assay: Tube formation of GSNOR-/- mesenchymal stem cells in Matrigel; format: cell-based, mouse; conditions: GSNOR-/- MSCs on Matrigel, 6 to 24 hours
Protocol: Bone marrow-derived MSCs isolated from wildtype and GSNOR^−/− mice were grown in endothelial growth media (EGM-2, Lonza Biotech) for a period of 1 week. Cells were harvested by brief trypsinization and plated in 24-well culture dishes (5×10^4 cells/well) pre-coated with 300 μl of Matrigel (BD Biosciences). Cells were incubated in endothelial basal media (Lonza Biotech) supplemented with 0.1% bovine serum albumin, in the presence or absence of GHRH agonist peptides P-20356 and P-27409. After 6 to 24 hours, tube formation potential was quantified in each sample by measuring the number and length of tubes formed using Image J Software (NIH).

[2] = test system: superfused rat pituitary cells; assay: GH release in superfused rat pituitary cell system (Table 4); format: cell-based; conditions: 1 nM; for GH Response (ng/ml), column 1: replicate 1; for GH Response (ng/ml), column 2: replicate 2; for GH Response (ng/ml), column 3: replicate 3
Protocol: Growth hormone releasing activity. Growth hormone releasing was assayed by using a superfused rat pituitary cell system as described in S. Vigh and A. V. Schally, Peptides 5, Suppl: 241-347, 1984. The new synthetic peptide analog of hGHRH P20356 and JI-38 (as control) were administered for 3 minutes (1 mL perfusate) at 1 nM concentration as shown below. Fractions of 1 ml are collected and the GH content in each was determined by ELISA.
Pituitary cells from 2 male rats were used for each channel of the superfusion system. The cells were exposed to 3-min pulses of the new GHRH agonists or to JI-38 as standard every 30 min. Outflowing samples of each channel (1 ml) were collected every 3 min, and GH levels were determined by ELISA.

GHRH receptor = target: T1, GHRH receptor (Homo sapiens, UniProt Q02643); assay: GHRH receptor binding, competition with 125I-labeled [His1,Nle27]hGHRH(1-32)NH2, human pituitary membrane homogenates (Table 6); set-up: Normal human pituitaries were purchased from the National Hormone and Peptide Program; tissue National Hormone and Peptide Program (A.F. Parlow, Harbor-UCLA Medical Center, Torrance, Calif.); host or cells: normal human pituitary, membrane fraction
T1 sequence (Q02643 23-423): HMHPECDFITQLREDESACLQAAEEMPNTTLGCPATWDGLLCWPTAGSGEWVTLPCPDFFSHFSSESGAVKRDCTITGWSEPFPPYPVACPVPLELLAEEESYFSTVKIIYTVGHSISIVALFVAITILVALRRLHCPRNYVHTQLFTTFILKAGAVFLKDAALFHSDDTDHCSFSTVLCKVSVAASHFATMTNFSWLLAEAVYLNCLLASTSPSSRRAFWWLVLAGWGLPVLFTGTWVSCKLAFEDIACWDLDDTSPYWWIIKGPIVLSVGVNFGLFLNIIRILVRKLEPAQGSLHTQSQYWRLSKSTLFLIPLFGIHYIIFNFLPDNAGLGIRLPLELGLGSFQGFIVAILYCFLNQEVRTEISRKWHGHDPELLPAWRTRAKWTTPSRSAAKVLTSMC
Source text: Normal human pituitaries were purchased from the National Hormone and Peptide Program (A.F. Parlow, Los Angeles, County Harbor-UCLA Medical Center, Torrance, Calif.).

[3] = fraction 1 (P-20356)/21 (JI-38)
[4] = fraction 2 (P-20356)/22 (JI-38)
[5] = fraction 3 (P-20356)/23 (JI-38)
[6] = fraction 4 (P-20356)/24 (JI-38)
[7] = fraction 5 (P-20356)/25 (JI-38)

Structure (SMILES)	Tube formation [1]	GH Response (ng/ml), Average [2, 3] [ng/mL]	GH Response (ng/ml), column 1 [2, 3] [ng/mL]	GH Response (ng/ml), column 2 [2, 3] [ng/mL]	GH Response (ng/ml), Average [2, 4] [ng/mL]	GH Response (ng/ml), column 1 [2, 4] [ng/mL]	GH Response (ng/ml), column 2 [2, 4] [ng/mL]	GH Response (ng/ml), Average [2, 5] [ng/mL]	GH Response (ng/ml), column 1 [2, 5] [ng/mL]	GH Response (ng/ml), column 2 [2, 5] [ng/mL]	GH Response (ng/ml), Average [2, 6] [ng/mL]	GH Response (ng/ml), column 1 [2, 6] [ng/mL]	GH Response (ng/ml), column 2 [2, 6] [ng/mL]	GH Response (ng/ml), Average [2, 7] [ng/mL]	GH Response (ng/ml), column 1 [2, 7] [ng/mL]	GH Response (ng/ml), column 2 [2, 7] [ng/mL]	other results
CCCC[C@H](NC(=O)[C@@H](NC(=O)[C@H](CC(=O)O)NC(=O)[C@H](CCC(N)=O)NC(=O)[C@H](CC(C)C)NC(=O)[C@H](CC(C)C)NC(=O)[C@H](CCCN)NC(=O)[C@H](CCCNC(=N)N)NC(=O)[C@H](C)NC(=O)[C@H](CO)NC(=O)[C@H](CC(C)C)NC(=O)[C@H](CCC(N)=O)NC(=O)[C@H](CC)NC(=O)[C@H](CC(C)C)NC(=O)[C@@H](NC(=O)[C@H](CCCN)NC(=O)[C@H](CCCNC(=N)N)NC(=O)[C@H](Cc1ccc(O)cc1)NC(=O)[C@H](CO)NC(=O)[C@H](CC(N)=O)NC(=O)[C@@H](NC(=O)[C@H](Cc1ccccc1)NC(=O)[C@@H](NC(=O)[C@H](C)NC(=O)[C@H](CC(=O)O)NC(=O)[C@@H](C)NC(=O)[C@H](Cc1ccc(O)cc1)NC)[C@@H](C)CC)[C@@H](C)O)C(C)C)[C@@H](C)CC)C(=O)N[C@@H](CC(=O)O)C(=O)N[C@@H](CCCNC(=N)N)C(=O)NC [Peptide P-27409, [N—Me-Tyr^1, D-Ala^2, Orn^12, Abu^15, Orn^21, Nle^27, Asp^28]hGHRH(1-29)NH—CH3] (H-[NMeY][dA]DAIFTNSYR[Orn]VL[Abu]QLSAR[Orn]LLQDI[Nle]DR-NHMe)	formed tube-like structures similar to wildtype MSCs	–	–	–	–	–	–	–	–	–	–	–	–	–	–	–	–
CCCC[C@H](NC(=O)[C@@H](NC(=O)[C@H](CC(=O)O)NC(=O)[C@H](CCC(N)=O)NC(=O)[C@H](CC(C)C)NC(=O)[C@H](CC(C)C)NC(=O)[C@H](CCCN)NC(=O)[C@H](CCCNC(=N)N)NC(=O)[C@H](C)NC(=O)[C@H](CO)NC(=O)[C@H](CC(C)C)NC(=O)[C@H](CCC(N)=O)NC(=O)[C@H](CC)NC(=O)[C@H](CC(C)C)NC(=O)[C@@H](NC(=O)[C@H](CCCN)NC(=O)[C@H](CCCNC(=N)N)NC(=O)[C@H](Cc1ccc(O)cc1)NC(=O)[C@H](CO)NC(=O)[C@H](CCC(N)=O)NC(=O)[C@@H](NC(=O)[C@H](Cc1ccccc1)NC(=O)[C@@H](NC(=O)[C@H](C)NC(=O)[C@H](CC(=O)O)NC(=O)[C@H](C)NC(=O)[C@H](Cc1ccc(O)cc1)NC)[C@@H](C)CC)[C@@H](C)O)C(C)C)[C@@H](C)CC)C(=O)N[C@@H](CC(=O)O)C(=O)NCCCCNC(=N)N [Peptide P-20356, [N—Me-Tyr^1, Gln^8, Orn^12, Abu^15, Orn^21, Nle^27, Asp^28, Agm^29]hGHRH(1-29) NH2] (H-[NMeY]ADAIFTQSYR[Orn]VL[Abu]QLSAR[Orn]LLQDI[Nle]D-Agmatine)	formed tube-like structures similar to wildtype MSCs	52.45	49.98	54.99	337.48	310.58	325.76	556.46	491.01	602.1	334.99	399.95	270.02	197.91	200.64	195.18	GH-releasing potency in vitro, times more potent than JI-38 ([2]; superfused rat pituitary cells): about 3; GH Response (ng/ml), column 3 [2, 3]: 52.37 ng/mL; GH Response (ng/ml), column 3 [2, 4]: 376.11 ng/mL; GH Response (ng/ml), column 3 [2, 5]: 576.26 ng/mL
CCCC[C@H](NC(=O)[C@@H](NC(=O)[C@H](CC(=O)O)NC(=O)[C@H](CCC(N)=O)NC(=O)[C@H](CC(C)C)NC(=O)[C@H](CC(C)C)NC(=O)[C@H](CCCN)NC(=O)[C@H](CCCNC(=N)N)NC(=O)[C@H](C)NC(=O)[C@H](CO)NC(=O)[C@H](CC(C)C)NC(=O)[C@H](CCC(N)=O)NC(=O)[C@H](CC)NC(=O)[C@H](CC(C)C)NC(=O)[C@@H](NC(=O)[C@H](CCCN)NC(=O)[C@H](CCCNC(=N)N)NC(=O)[C@H](Cc1ccc(O)cc1)NC(=O)[C@H](CO)NC(=O)[C@H](CCC(N)=O)NC(=O)[C@@H](NC(=O)[C@H](Cc1ccccc1)NC(=O)[C@@H](NC(=O)[C@H](C)NC(=O)[C@H](CC(=O)O)NC(=O)[C@H](C)NC(=O)CCc1ccc(O)cc1)[C@@H](C)CC)[C@@H](C)O)C(C)C)[C@@H](C)CC)C(=O)N[C@@H](CC(=O)O)C(=O)NCCCCNC(=N)N [JI-38, [Dat^1, Gln^8, Orn^12,21, Abu^15, Nle^27, Asp^28, Agm^29]hGHRH(1-29)NH2, reference compound] (Desaminotyrosyl-ADAIFTQSYR[Orn]VL[Abu]QLSAR[Orn]LLQDI[Nle]D-Agmatine)	–	49.27	42.46	56.07	131.71	143.58	119.83	194.68	222.13	167.23	137.45	142.96	131.93	96.70	96.34	97.05	IC50 (GHRH receptor; 125I-[His1,Nle27]hGHRH(1-32)NH2, human pituitary membranes, Table 6): 1.95 nM; Relative affinity (Binding potency) vs GHRH (GHRH receptor; GHRH(1-29) = 1, Table 6): 3.03; Relative affinity (Binding potency) vs JI-38 (GHRH receptor; JI-38 = 1, Table 6): 1
